Experimental data reported in ChEMBL document CHEMBL6096683, “Novel Orthosteric/Allosteric Ligands of Cannabinoid Receptors: An Unexpected Pharmacological Profile” (J Med Chem, 2025).
Activity calls are given as the source filed them. The calls are words filed in the database; no cut-off is given here.

Key:
Cannabinoid receptor 2 [1] = biological target: T1, Cannabinoid receptor 2 (Homo sapiens, UniProt P34972); assay: Displacement of [3H]CP55940 from human CB2 receptor expressed in CHO cell membrane incubated for 2 hrs; format: cell membranes
Cannabinoid receptor 2 [2] = biological target: T1, Cannabinoid receptor 2; assay: Agonist activity at human CB2 receptor expressed in CHO cells assessed as inhibition of forskolin-induced cAMP production at 1.8 nM incubated for 90 mins by HitHunter assay relative to control; format: functional, cell-based; design: scale not given: the % may be the effect or the level left; details: filed as agonist
HepG2 = assay: Anti-steatosis activity against oleate/palmitate-induced human HepG2 cells assessed as induction of lipolysis at 25 uM incubated for 24 hrs; format: functional, cell-based
Cannabinoid receptor 1 [3] = biological target: T2, Cannabinoid receptor 1 (Homo sapiens, UniProt P21554); assay: Displacement of [3H]CP55940 from human CB1 receptor expressed in CHO cell membrane at 0.001 to 10 uM incubated for 2 hrs relative to control; format: cell membranes; details: dose 0.001-10 µM
Cannabinoid receptor 2 [4] = biological target: T1, Cannabinoid receptor 2; assay: Displacement of [3H]CP55940 from human CB2 receptor expressed in CHO cell membrane at 0.001 to 10 uM incubated for 2 hrs relative to control; format: cell membranes; details: dose 0.001-10 µM
Cannabinoid receptor 1 [5] = biological target: T2, Cannabinoid receptor 1; assay: Displacement of [3H]CP55940 from human CB1 receptor; details: filed as agonist
Cannabinoid receptor 1 [6] = biological target: T2, Cannabinoid receptor 1; assay: Displacement of [3H]CP55940 from human CB1 receptor expressed in CHO cell membrane incubated for 2 hrs; format: cell membranes
Cannabinoid receptor 2 [7] = biological target: T1, Cannabinoid receptor 2; assay: Displacement of [3H]CP55940 from human CB2 receptor; details: filed as agonist
Cannabinoid receptor 1 [8] = biological target: T2, Cannabinoid receptor 1; assay: Agonist activity at human CB1 receptor expressed in CHO cells assessed as inhibition of forskolin-induced cAMP production incubated for 90 mins in presence of GAT211 ligand by HitHunter assay; format: functional, cell-based
Cannabinoid receptor 1 [9] = biological target: T2, Cannabinoid receptor 1; assay: Agonist activity at human CB1 receptor expressed in CHO cells assessed as inhibition of forskolin-induced cAMP production incubated for 90 mins in presence of CP55940 ligand by HitHunter assay; format: functional, cell-based
Cannabinoid receptor 2 [10] = biological target: T1, Cannabinoid receptor 2; assay: Agonist activity at human CB2 receptor expressed in CHO cells assessed as inhibition of forskolin-induced cAMP production at 10 uM incubated for 90 mins by HitHunter assay; format: functional, cell-based; details: filed as agonist
Cannabinoid receptor 1 [11] = biological target: T2, Cannabinoid receptor 1; assay: Agonist activity at human CB1 receptor expressed in CHO cells assessed as inhibition of forskolin-induced cAMP production at 100 nM incubated for 90 mins in presence of CP55940 ligand by HitHunter assay relative to control; format: functional, cell-based
Cannabinoid receptor 1 [12] = biological target: T2, Cannabinoid receptor 1; assay: Agonist activity at human CB1 receptor expressed in CHO cells assessed as inhibition of forskolin-induced cAMP production at 100 nM incubated for 90 mins in presence of GAT211 ligand by HitHunter assay relative to control; format: functional, cell-based
Cannabinoid receptor 1 [13] = biological target: T2, Cannabinoid receptor 1; assay: Agonist activity at human CB1 receptor expressed in CHO cells assessed as inhibition of forskolin-induced cAMP production at 100 nM incubated for 90 mins in presence of FM6b ligand by HitHunter assay relative to control; format: functional, cell-based; details: filed as agonist
Cannabinoid receptor 1 [14] = biological target: T2, Cannabinoid receptor 1; assay: Agonist activity at human CB1 receptor expressed in CHO cells assessed as inhibition of forskolin-induced cAMP production incubated for 90 mins in presence of FM6b ligand by HitHunter assay; format: functional, cell-based
BEND3 [15] = assay: Disruption of monolayer integrity in mouse BEND3 cells assessed as change in TEER modulation at 135 mins; format: functional, cell-based
BEND3 [16] = assay: Disruption of monolayer integrity in mouse BEND3 cells assessed as change in TEER modulation at 180 mins; format: functional, cell-based
Cannabinoid receptor 2 [17] = biological target: T1, Cannabinoid receptor 2; assay: Agonist activity at human CB2 receptor expressed in CHO cells assessed as inhibition of forskolin-induced cAMP production at 100 nM incubated for 90 mins in presence of CP55940 ligand by HitHunter assay relative to control; format: functional, cell-based; details: filed as agonist
Cannabinoid receptor 2 [18] = biological target: T1, Cannabinoid receptor 2; assay: Agonist activity at human CB2 receptor expressed in CHO cells assessed as inhibition of forskolin-induced cAMP production incubated for 90 mins in presence of CP55940 ligand by HitHunter assay; format: functional, cell-based
Cannabinoid receptor 2 [19] = biological target: T1, Cannabinoid receptor 2; assay: Agonist activity at human CB2 receptor expressed in CHO cells assessed as inhibition of forskolin-induced cAMP production at 100 nM incubated for 90 mins in presence of FM6b ligand by HitHunter assay relative to control; format: functional, cell-based; details: filed as agonist
Cannabinoid receptor 2 [20] = biological target: T1, Cannabinoid receptor 2; assay: Agonist activity at human CB2 receptor expressed in CHO cells assessed as inhibition of forskolin-induced cAMP production incubated for 90 mins in presence of FM6b ligand by HitHunter assay; format: functional, cell-based

T1 sequence (P34972 whole entry): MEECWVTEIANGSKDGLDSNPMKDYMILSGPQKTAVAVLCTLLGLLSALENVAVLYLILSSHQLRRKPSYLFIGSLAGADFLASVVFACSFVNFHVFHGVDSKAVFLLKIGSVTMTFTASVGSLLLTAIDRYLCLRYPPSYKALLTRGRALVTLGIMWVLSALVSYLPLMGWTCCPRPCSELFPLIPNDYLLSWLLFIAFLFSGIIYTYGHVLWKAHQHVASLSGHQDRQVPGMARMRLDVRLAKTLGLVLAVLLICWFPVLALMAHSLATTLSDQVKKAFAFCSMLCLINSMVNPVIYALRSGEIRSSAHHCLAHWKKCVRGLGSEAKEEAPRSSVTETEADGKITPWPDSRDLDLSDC
T2 sequence (P21554 whole entry): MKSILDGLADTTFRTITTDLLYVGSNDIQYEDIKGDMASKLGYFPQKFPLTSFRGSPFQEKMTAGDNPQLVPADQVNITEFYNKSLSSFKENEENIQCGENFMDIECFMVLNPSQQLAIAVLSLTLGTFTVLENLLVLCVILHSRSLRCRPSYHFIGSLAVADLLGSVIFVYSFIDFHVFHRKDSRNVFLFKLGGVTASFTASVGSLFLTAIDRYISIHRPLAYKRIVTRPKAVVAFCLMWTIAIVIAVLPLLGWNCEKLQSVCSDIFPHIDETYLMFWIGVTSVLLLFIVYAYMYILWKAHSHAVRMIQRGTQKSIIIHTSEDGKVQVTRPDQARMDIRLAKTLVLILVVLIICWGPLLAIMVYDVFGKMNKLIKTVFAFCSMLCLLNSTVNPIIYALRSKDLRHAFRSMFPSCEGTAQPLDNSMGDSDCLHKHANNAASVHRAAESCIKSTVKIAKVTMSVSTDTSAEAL

SMILES: Cc1c(Br)cc(C(=O)NC2CCCCCC2)c(=O)n1Cc1ccc(F)cc1
- IC50 (Cannabinoid receptor 2 [1]; read-out: pIC50 (converted)): 6.31 nM
- Activity (Cannabinoid receptor 2 [2]): 104%
- Activity (HepG2): inactive
- Emax (Cannabinoid receptor 1 [3]): 29%
- Emax (Cannabinoid receptor 2 [4]): 13%
- Activity (Cannabinoid receptor 1 [5]): Active
- IC50 (Cannabinoid receptor 1 [6]): 0.794 nM
- Activity (Cannabinoid receptor 2 [7]): Active

SMILES: Cc1c(Br)cc(C(=O)NC2CCCCCC2)c(=O)n1CCCCCn1cc(CCC(=O)NCC(c2ccccc2)c2c(-c3ccccc3)[nH]c3ccccc23)nn1 (centres undefined)
- EC50 (Cannabinoid receptor 1 [8]): 63.1 nM
- EC50 (Cannabinoid receptor 1 [9]): 20 nM
- Activity (Cannabinoid receptor 2 [10]): Active
- Emax (Cannabinoid receptor 1 [11]; filed as agonist): 58%
- Emax (Cannabinoid receptor 1 [12]): 1.3%
- Emax (Cannabinoid receptor 1 [3]; filed as agonist): 42%
- Emax (Cannabinoid receptor 2 [4]; filed as agonist): 80%
- Emax (Cannabinoid receptor 1 [13]): 120%
- IC50 (Cannabinoid receptor 1 [6]): 20 nM
- EC50 (Cannabinoid receptor 1 [14]): 2000 nM

SMILES: O=C1OC2(c3ccc(O)cc3Oc3cc(O)ccc32)c2ccccc21
- Activity (BEND3 [15]): Active
- Activity (BEND3 [16]): Active

SMILES: Cc1c(Br)cc(C(=O)NC2CCCCCC2)c(=O)n1CCCn1cc(CCCC(=O)NCC(c2ccccc2)c2c(-c3ccccc3)[nH]c3ccccc23)nn1 (centres undefined)
- IC50 (Cannabinoid receptor 2 [1]; read-out: IC50): 100 nM
- EC50 (Cannabinoid receptor 1 [8]): 15.8 nM
- EC50 (Cannabinoid receptor 1 [9]): 25.1 nM
- Activity (Cannabinoid receptor 2 [10]): Active
- Emax (Cannabinoid receptor 1 [11]; filed as agonist): 79%
- Emax (Cannabinoid receptor 2 [17]): 104%
- Emax (Cannabinoid receptor 1 [12]): 0.335%
- Emax (Cannabinoid receptor 1 [3]): 31%
- EC50 (Cannabinoid receptor 2 [18]): 7.94 nM
- Emax (Cannabinoid receptor 2 [4]; filed as agonist): 160%
- Emax (Cannabinoid receptor 2 [19]): 73%
- Emax (Cannabinoid receptor 1 [13]): 120%
- EC50 (Cannabinoid receptor 2 [20]): 398 nM
- IC50 (Cannabinoid receptor 1 [6]): 25.1 nM
- EC50 (Cannabinoid receptor 1 [14]): 631 nM

SMILES: Cc1c(Br)cc(C(=O)NC2CCCCCC2)c(=O)n1CCCn1cc(CCCCC(=O)NCC(c2ccccc2)c2c(-c3ccccc3)[nH]c3ccccc23)nn1 (centres undefined)
- EC50 (Cannabinoid receptor 1 [9]): 25.1 nM
- Activity (Cannabinoid receptor 2 [10]): Active
- Emax (Cannabinoid receptor 1 [11]): 31%
- Emax (Cannabinoid receptor 1 [12]): 3.32%
- Emax (Cannabinoid receptor 1 [3]; filed as agonist): 60%
- Emax (Cannabinoid receptor 2 [4]; filed as agonist): 97%
- Emax (Cannabinoid receptor 1 [13]): 67%
- IC50 (Cannabinoid receptor 1 [6]): 0.631 nM
- EC50 (Cannabinoid receptor 1 [14]): 63.1 nM
